Consider 10 molecules from patent US20080139551A1, “TUMOR NECROSIS FACTOR ALPHA INHIBITORS AND THEIR USE IN THE TREATMENT OF HUMAN DISEASES” (AVANIR PHARMACEUTICALS, priority 2006, published 2008).

Molecules are shown by their SMILES.

The test system of one series is TNF-alpha. Put plainly: TNF-alpha production in LPS-challenged mice, assayed by ELISA. The class given is in vivo. The settings on record: Mus musculus, inhibition of TNF-alpha production, formulated in FS-1, oral gavage; for inhibition at 10 mg/kg: 10 mpk P.O. The text has this: Mice were challenged with LPS to produce TNF-alpha in vivo, and then assayed by ELISA after dosing with or without the TNF-alpha inhibitor (formulated in FS-1 and delivered through oral gavage).
On the technique in general: An ELISA detects its analyte on a solid surface through an enzyme-linked reagent.

Series [1] in a line: In vitro incubation with liver microsomes of mouse, metabolite characterisation by HPLC/MS. The class given is in vitro ADME. The method, then: (§1) Stock solutions of NVP-VAQ996-NX-1 (2 mmol/L) were prepared in DMSO. Alamethicin solution was prepared (0.125 mmol/L) in water. Uridine 5′-diphosphoglucuronic acid (UDPGA) solution (24 mmol/L) was prepared in phosphate buffer 100 mM pH 7.4. In a further experiment 50 mmol/L gluthationic acid reduced (GSH) in phosphate buffer 100 mM pH 7.4 was added as second co-factor.
(§2) For the characterization of in vitro metabolites NVP-VAQ996-NX-1 was incubated at 37° C. for up to 60 minutes with liver microsomes from mouse and human (Table 3).
(§3) 3 μL liver microsomes, containing 20 mg protein/mL, were mixed with 417 μL phosphate buffer, 60 μL alamethicin solution and 60 μL UDPGA. To this reaction mixture 3 μL stock solution (2 mM in DMSO) of NVP-VAQ996-NX-1 was added and pre-incubated for 3 min at 37° C. After pre-incubation, the final reaction was started by addition of 60 μL of the nicotinamide-adenine-dinucleotide-phosphate (NADPH)-regenerating system, containing isocitrate-dehydrogenase (TU/mL), NADP (1 mmol/L), isocitrate (5 mmol/L). After 1 h, the reaction was stopped with 600 μL ice-cold acetonitrile. Experiments were conducted according to a generic protocol. The reaction mixture was stored at −80° C. The final set-up of the in vitro incubation is shown on Table 4.
(§4) Prior to use, the mixture was centrifuged (10000 g, 5 min) and 500 μL of 1 mL supernatant evaporated to dryness. […]

The nature of series [2]: In vitro incubation in plasma from mice. The series is classed as in vitro ADME, Balb/c mice. As to conditions: heparinized mouse plasma, 5 μg/ml, 2 or 24 hrs at 37° C. As to the method:
Heparinized mouse plasma was freshly obtained from Balb/c mice. Samples were incubated with 5 μg/ml NVP-VAQ996 added from a stock solution (1 mg/ml) in DMSO for 2 or 24 hrs at 37° C.
(§5) For protein precipitation, to 100 μL plasma 100 μL ice-cold acetonitrile was added. This procedure was repeated twice during 1 hour and, after centrifugation (10000 g, 5 min), the supernatant was used for further preparation.
(§6) The solvent of the supernatant was evaporated using the Cyclone high speed evaporator (Prolab, Reinach, Switzerland) and the residue reconstituted with water/acetonitrile (95/5; v/v). An aliquot of the final solution was used for the high performance liquid chromatography/mass spectrometry (HPLC/MS) analyses.
The liquid chromatographic separation was performed using an Chorus-220 syringe pump (CS analytics, Beckenried, Switzerland) and a home-made glass capillary column, 150 mm×0.3 mm, filled with Nucleosil C18-HD, particle size 3.5 μm Gradient mobile phase programming was used with a flow rate of 4.5 μL/min. Eluent A was acetonitrile/water (5/95) 10 mM HCOONH4+0.02% trifluoroacetic acid (TFA). Eluent B was acetonitrile/methanol/water (9/5/5)+10 mM HCOONH4+0.02% TFA. The mobile phase was held 2 min. isocratic at 5% B, followed by a linear gradient from 15% B to 95% B over 30 min and a 5 min isocratic phase at 95% B. The column temperature was kept at 40° C. […]

Series [3] in a line: Metabolite identification in plasma after p.o. administration to mice. On the set-up: species or system Balb/c mice. As to conditions: in vivo in plasma after p.o. administration of 10 mg/kg to mice. The method, then:
Female Balb/c mice (Charles River) were housed under standard conditions with free access to food and drinking water throughout the experiment. The mice (n=4) were treated perorally with 10 mg/kg NVP-VAQ996-NX-1 (at 5 mL/kg) by gavage. At the allotted time points mice blood samples were obtained into heparinized tubes (30 IU/mL). The liver was removed intact, weighed and snap frozen before storage at −70° C. until analyzed.
as §5, §6
The liquid chromatographic separation was performed using an Chorus-220 syringe pump (CS analytics, Beckenried, Switzerland) and a home-made glass capillary column, 150 mm×0.3 mm, filled with Nucleosil C18-HD, particle size 3.5 μm Gradient mobile phase programming was used with a flow rate of 4.5 μL/min. Eluent A was acetonitrile/water (5/95) 10 mM HCOONH4+0.02% trifluoroacetic acid (TFA). […]

A short description of series [4]: In vitro incubation with liver microsomes of human, metabolite characterisation by HPLC/MS. The series is classed as in vitro ADME. As to the method:
as §1, §2, §3, §4
A general note: Microsomes from liver hold many membrane-bound enzymes, among them those of drug oxidation.

In the series with TNF-alpha, `CCOC(=O)c1c(N2CCNCC2)c2ccccc2n(Cc2ccc(F)cc2)c1=O` [Compound 101] yielded an inhibition at 10 mg/kg of 43.4%.
Still for that read-out and setting: the same measure for `N#Cc1c(N2CCNCC2)c2ccccc2n(CC(=O)c2ccccc2)c1=O` [Compound 102]: 36.5%; for `Cc1ccc2c(c1)c(N1CCNCC1)c(C#N)c(=O)n2CC(=O)c1ccccc1` [Compound 103]: 67.3%; for `Cc1ccc2c(c1)c(N1CCNCC1)c(C#N)c(=O)n2C` [Compound 105]: 21%.
Still for that read-out and setting: the figure for `Cn1c(=O)c([N+](=O)[O-])c(N2CCNCC2)c2ccccc21` [Compound 108] is 26.2%.
In the case of `CCOC(=O)c1c(N2CCNCC2)c2sccc2n(Cc2cccc(F)c2)c1=O` [Compound 113], in the series on TNF-alpha (3 mg/kg P.O., read-out: % Inhibition (tested at 3 mg/kg)), the inhibition at 3 mg/kg amounted to 84.1%.
Take `Cc1ccc2c(c1)c(N1CCN(C)CC1)c(C#N)c(=O)n2CC(=O)c1ccccc1` [Compound 114]: the inhibition at 10 mg/kg with TNF-alpha stood at 51.6%.
Still for that read-out and setting: the same measure for `CC(=O)N1CCN(c2c(C#N)c(=O)n(CC(=O)c3ccccc3)c3ccc(C)cc23)CC1` [Compound 115]: 41.3%.
In the case of `CN1CCN(c2c(C#N)c(=O)n(CC(=O)c3ccccc3)c3ccccc23)CC1` [Compound 116], the inhibition at 10 mg/kg in the series with TNF-alpha was 29.4%.
As for `N#Cc1c(N2CCN(C(=O)c3cccs3)CC2)c2ccccc2n(CC(=O)c2ccccc2)c1=O` [NVP-VAQ996-NX], the main metabolite result in series [1] (after in vitro incubation with liver microsomes of mouse), in series [3] and in series [4] (after in vitro incubation with liver microsomes of human) was “NVP-VAR235-NX” in each case. Besides, the “metabolic degradation with liver microsomes” value in series [1] (mouse liver microsomes 0.1 mg/ml, 5 μM, 37° C., up to 60 min) is on record as “high”; in series [4] (human liver microsomes 0.1 mg/ml, 5 μM, 37° C., up to 60 min), “high”. Also, the “rate of degradation to metabolite ml in plasma” value in series [2] is reported as “high”.
